Laboratory results published in patent US20260297095A1, “NOVEL PYRROLOTRIAZINE DERIVATIVE AND USE THEREOF” (Pelemed Co., Ltd., priority 2024, published 2026).

Each molecule was assayed on KYSE-70 esophageal cancer cell line (assay: Cell growth inhibition of KYSE-70 (Sulforhodamine B)). Settings: Homo sapiens; KYSE-70, 72 hours; read-out: KYSE70 GI50.
Assay type: cell-based
Method: The cell line according to the present invention was selected as KYSE-70, an esophageal cancer cell line in which YES1 is amplified. The evaluation of cell growth inhibition was performed as follows.
KYSE-70 was cultured in RPMI-1640 (Capricorn) supplemented with 10% FBS (Cellgro). The cells were seeded 24 hours prior to compound treatment, into three 96-well F-bottom clear plates (Greiner), with 7,500 cells per well in 180 μL of medium. The 10 mM compound was diluted 100-fold in medium to prepare a 100 μM compound, which was then placed into a 96-well plate and further 3-fold diluted in medium to prepare a compound plate with concentrations ranging from 0.046 μM to 100 μM. 20 μL of each compound from the drug plate was added to the cell-seeded plates to achieve final concentrations of 0.0046 μM to 10 μM. At the same time, 50 μL of 33% trichloroacetic acid was injected into one plate and the plate was fixed by incubating at 4° C. This was referred to as the Do plate. Viable cells were measured 72 hours after compound treatment by injecting 50 μL of 33% trichloroacetic acid and incubating at 4° C. for more than 1 hour to fix the cells. This was referred to as the D3 plate. After the Do plate and D3 plates were washed 5 times with sterile water, 100 μL of 0.04% Sulforhodamine B solution in 1% acetic acid was added and reacted for 1 hour to stain the cells. After staining, the plates were washed 4 times with 1% acetic acid solution and completely dried. Then, the Sulforhodamine B bound to cellular proteins was completely dissolved with 10 mM Tris base solution (pH 10.5). The absorbance was measured at a wavelength of 510 nm using a microplate reader (TECAN, sunrise microplate reader). The analysis was performed using GraphPad Prism. The average absorbance of the Do plate was set to 0%, and the average absorbance of the negative control of the D3 plate was set to 100%, from which a graph was drawn and the GI50 values were calculated. Each test was performed twice.

Row | GI50 | SMILES
1 | ≤ 100 nM | COc1cc(-c2c(C)c(N3CCC(N(C)C)CC3)n3ncnc(N)c23)ccc1NC(=O)OC(C)(C)CF [Example 62, 1-fluoro-2-methylpropan-2-yl (4-(4-amino-7-(4-(dimethylamino)piperidin-1-yl)-6-methylpyrrolo[2,1-f][1,2,4]triazin-5-yl)-2-methoxyphenyl)carbamate]
2 | ≤ 100 nM | COc1cc(-c2cc(CCN3CCC(N)CC3)n3ncnc(N)c23)ccc1NC(=O)OC(C)(C)CF [Example 68, 1-fluoro-2-methylpropan-2-yl (4-(4-amino-7-(2-(4-aminopiperidin-1-yl)ethyl)pyrrolo[2,1-f][1,2,4]triazin-5-yl)-2-methoxyphenyl)carbamate]
3 | ≤ 100 nM | CC(C)(C)OC(=O)Nc1ccc(-c2cc(N3CCC(N)CC3)n3ncnc(N)c23)c2c1OCO2 [Example 73, tert-butyl (7-(4-amino-7-(4-aminopiperidin-1-yl)pyrrolo[2,1-f][1,2,4]triazin-5-yl)benzo[d][1,3]dioxol-4-yl)carbamate]
4 | 100 to 1000 nM | CNC1CCN(c2cc(-c3ccc(NC(=O)OC(C)(C)C)c(OC)c3)c3c(N)nccn23)CC1 [Example 133, tert-butyl (4-(1-amino-6-(4-(methylamino)piperidin-1-yl)pyrrolo[1,2-a]pyrazin-8-yl)-2-methoxyphenyl)carbamate]
5 | > 10000 nM | COc1cc(-c2cc(N[C@@H]3CC[C@H](CN)C3)n3ncnc(N)c23)ccc1NC(=O)OC(C)(C)C [Example 111, tert-butyl (4-(4-amino-7-(((1R,3S)-3-(aminomethyl)cyclopentyl)amino)pyrrolo[2,1-f][1,2,4]triazin-5-yl)-2-methoxyphenyl)carbamate]

Further lines, the molecule ahead of its results:

Row | SMILES | GI50
6 | COc1cc(-c2cc(CCN3CCC(N(C)C)CC3)n3ncnc(N)c23)ccc1NC(=O)OC(C)(C)CF [Example 69, 1-fluoro-2-methylpropan-2-yl (4-(4-amino-7-(2-(4-(dimethylamino)piperidin-1-yl)ethyl)pyrrolo[2,1-f][1,2,4]triazin-5-yl)-2-methoxyphenyl)carbamate] | ≤ 100 nM
7 | COc1cc(-c2c(Cl)c(N3CCC(N(C)C)CC3)n3ncnc(N)c23)ccc1NC(=O)OC(C)(C)C [Example 124, tert-butyl (4-(4-amino-6-chloro-7-(4-(dimethylamino)piperidin-1-yl)pyrrolo[2,1-f][1,2,4]triazin-5-yl)-2-methoxyphenyl)carbamate] | ≤ 100 nM
8 | COc1cc(-c2cc(NC[C@H]3CC[C@@H](N)C3)n3ncnc(N)c23)ccc1NC(=O)OC(C)(C)C [Example 110, tert-butyl (4-(4-amino-7-((((1S,3R)-3-aminocyclopentyl)methyl)amino)pyrrolo[2,1-f][1,2,4]triazin-5-yl)-2-methoxyphenyl)carbamate] | 100 to 1000 nM
9 | CNC1CCN(CCc2c(F)c(-c3ccc(NC(=O)OC(C)(C)C)c(OC)c3)c3c(N)ncnn23)CC1 [Example 130, tert-butyl (4-(4-amino-6-fluoro-7-(2-(4-(methylamino)piperidin-1-yl)ethyl)pyrrolo[2,1-f][1,2,4]triazin-5-yl)-2-methoxyphenyl)carbamate] | ≤ 100 nM
10 | COc1cc(-c2cc(N3CCC(C(C)N)CC3)n3ncnc(N)c23)ccc1NC(=O)OC(C)(C)C (stereo not drawn) [Example 81, tert-butyl (4-(4-amino-7-(4-(1-aminoethyl)piperidin-1-yl)pyrrolo[2,1-f][1,2,4]triazin-5-yl)-2-methoxyphenyl)carbamate] | 100 to 1000 nM
11 | COc1cc(-c2cc(N3CCC(N)C4(CC4)C3)n3ncnc(N)c23)ccc1NC(=O)OC(C)(C)C (stereo not drawn) [Example 80, tert-butyl (4-(4-amino-7-(8-amino-5-azaspiro[2.5]octan-5-yl)pyrrolo[2,1-f][1,2,4]triazin-5-yl)-2-methoxyphenyl)carbamate] | 100 to 1000 nM
12 | COc1cc(-c2cc(N3CCC(N(C)C)CC3)n3ccnc(N)c23)ccc1NC(=O)OC(C)(C)C [Example 134, tert-butyl (4-(1-amino-6-(4-(dimethylamino)piperidin-1-yl)pyrrolo[1,2-a]pyrazin-8-yl)-2-methoxyphenyl)carbamate] | ≤ 100 nM
13 | COc1cc(-c2c(C(F)(F)F)c(N3CCC(N)CC3)n3ncnc(N)c23)ccc1NC(=O)OC(C)(C)C [Example 125, tert-butyl (4-(4-amino-7-(4-aminopiperidin-1-yl)-6-(trifluoromethyl)pyrrolo[2,1-f][1,2,4]triazin-5-yl)-2-methoxyphenyl)carbamate] | 100 to 1000 nM
14 | CNCCC1CCN(c2c(C)c(-c3ccc(NC(=O)OC(C)(C)C)c(OC)c3)c3c(N)ncnn23)CC1 [Example 77, tert-butyl (4-(4-amino-6-methyl-7-(4-(2-(methylamino)ethyl)piperidin-1-yl)pyrrolo[2,1-f][1,2,4]triazin-5-yl)-2-methoxyphenyl)carbamate] | 100 to 1000 nM
15 | CNC1CCN(c2c(C)c(-c3ccc(NC(=O)OC(C)(C)CF)c(OC)c3)c3c(N)ncnn23)CC1 [Example 61, 1-fluoro-2-methylpropan-2-yl (4-(4-amino-6-methyl-7-(4-(methylamino)piperidin-1-yl)pyrrolo[2,1-f][1,2,4]triazin-5-yl)-2-methoxyphenyl)carbamate] | ≤ 100 nM
